These results are taken from publication PMC8541628, “Development of Novel Quinoline-Based Sulfonamides as Selective Cancer-Associated Carbonic Anhydrase Isoform IX Inhibitors” (International Journal of Molecular Sciences, 2021).

The structures appear in SMILES notation.

In one data set the target is hCA XII (Homo sapiens, UniProt O43570). The data set can be described thus: stopped flow carbon dioxide hydrase assay, hCA XII. The conditions noted are these: for Selectivity ratio I/XII: hCA XII over hCA I; for Selectivity ratio II/XII: hCA XII over hCA II.
The target in another data set is hCA II (Homo sapiens, UniProt P00918). Briefly: stopped flow carbon dioxide hydrase assay, hCA II.
In a further data set the target is hCA I (Homo sapiens, UniProt P00915). Briefly: stopped flow carbon dioxide hydrase assay, hCA I.
Another data set concerns the target hCA IX (Homo sapiens, UniProt Q16790). Briefly: stopped flow carbon dioxide hydrase assay, hCA IX. The conditions noted are these: for Selectivity ratio I/IX: hCA IX over hCA I; for Selectivity ratio II/IX: hCA IX over hCA II.
In a further data set the test system is MCF-7. Briefly: 72 h MTT anti-proliferative assay under hypoxic conditions, MCF-7. It is filed as cell-based. The conditions noted are these: Homo sapiens, MCF7, mean ± S.D. of three experiments. As for the experimental part: Therefore, QBS 11c and 13b were further screened for their potential in vitro anti-proliferative action against two breast cancer cell lines (MDA-MB-231 and MCF-7) under hypoxic conditions, exploiting a 72 h MTT assay protocol and using Doxorubicin as a positive control drug.
All adopted procedures for the conducted in vitro biological assays were performed as described earlier; CA (stopped-flow), cytotoxicity (MTT [37, 38]), and assessment of apoptotic markers assays, as well as induction of hypoxia with cobalt chloride, and were mentioned in the Supporting Materials.
(§1) 1. Carbonic anhydrase inhibition assay
16) herein reported have were assayed utilizing an instrument of Applied Photophysics stopped-flow. The enzymes are recombinant proteins prepared in our lab. Phenol red (at a concentration of 0.2 mM) has been used as indicator, working at the absorbance maximum of 557 nm, with 20 mM Hepes (pH 7.5) as buffer, and 20 mM Na2SO4 (for maintaining constant the ionic strength), […]
parameters and inhibition constants. For each inhibitor at least six traces of the initial 5-10% of the reaction have been used for determining the initial velocity . Th e un cat aly zed rates were determined in the same manner and subtracted from the total observed rates. Stock solutions of inhibitor (0.1 mM) were prepared in distilled-deionized water and dilutions up to 0.01 nM were done thereafter with the assay buffer. Inhibitor and enzyme solutions were preincubated together for 15 min at room temperature prior to assay, in order to allow fo r the formation of the E-I complex. […]
Cells were sub-cultured with try psine /EDTA solution, counted with haemocy tometer and plated onto 96-well plates (5000 cells/well) and left overnight to form a semi-confluent […]
monolay er. […] DMSO (100 µl/well) was added to dissolve the formazan crystals with shaking for 10 min after which the absorbance was read at 590 nm against no cell blanks on a FLuo Star Optima microplate reader (BMG technologies, Germany). Cell proliferation was calculated comparing the OD values of the DMSO control wells and those of the samples
On the technique in general: Tetrazolium assays rely on reduction of a dye to a coloured formazan, in cell work by metabolically active cells.

The test system of the next data set is MDA-MB-231. The data set can be described thus: 72 h MTT anti-proliferative assay under hypoxic conditions, MDA-MB-231. The class given is cell-based. Particulars: Homo sapiens, mean ± S.D. of three experiments.
Source text: as §1
The enzymes are recombinant proteins prepared in our lab.
parameters and inhibition constants.
2. Anti-proliferative action toward human breast cell lines

Chain of hCA XII (O43570 25-354): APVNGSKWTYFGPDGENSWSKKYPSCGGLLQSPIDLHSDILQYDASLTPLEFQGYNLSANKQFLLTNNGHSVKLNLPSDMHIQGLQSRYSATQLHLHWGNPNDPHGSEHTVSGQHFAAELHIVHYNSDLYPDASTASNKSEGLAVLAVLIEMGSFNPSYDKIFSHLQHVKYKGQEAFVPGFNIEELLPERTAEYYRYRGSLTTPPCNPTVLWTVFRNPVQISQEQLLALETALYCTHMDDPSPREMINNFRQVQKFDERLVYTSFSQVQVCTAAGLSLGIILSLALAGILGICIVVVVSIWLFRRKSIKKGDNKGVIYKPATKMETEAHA
Chain of hCA I (P00915 whole entry): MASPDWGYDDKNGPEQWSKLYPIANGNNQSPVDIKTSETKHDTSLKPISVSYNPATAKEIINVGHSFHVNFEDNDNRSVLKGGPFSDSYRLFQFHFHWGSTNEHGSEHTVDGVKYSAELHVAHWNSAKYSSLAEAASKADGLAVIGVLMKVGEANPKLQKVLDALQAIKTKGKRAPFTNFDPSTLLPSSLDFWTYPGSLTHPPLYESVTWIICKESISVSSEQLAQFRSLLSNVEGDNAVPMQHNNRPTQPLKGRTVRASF

In general, melting point refers to the temperature, or range, at which the solid turns liquid. What is called Ki is the dissociation constant of the complex between target and ligand, obtained from inhibition or displacement. Low values mean higher affinity, high ones lower affinity. The compound `Cc1ccc2nccc(Nc3ccccc3S(N)(=O)=O)c2c1` [9a, 2-((6-methylquinolin-4-yl)amino)benzenesulfonamide] yielded a melting point of 264 to 265 °C. At hCA XII, the Ki came out at 22.8 nM, the “Selectivity ratio I/XII” value worked out at 24.5 and the “Selectivity ratio II/XII” value is 3.4. This compound had a Ki at hCA II of 78.4 nM. The Ki at hCA I amounted to 558 nM. Also, on hCA IX, the Ki was 36.4 nM, the “Selectivity ratio I/IX” value is 15.3 and the “Selectivity ratio II/IX” value is 2.2.
`COc1ccc2nccc(Nc3ccccc3S(N)(=O)=O)c2c1` [9b, 2-((6-methoxyquinolin-4-yl)amino)benzenesulfonamide] gave a melting point of 275 to 277 °C. Also, on hCA XII, the affinity corresponds to a Ki of 42.1 nM, the “Selectivity ratio I/XII” value was determined as 20.5 and the “Selectivity ratio II/XII” value was 1.2. The compound further showed a Ki on hCA II of 49.7 nM. The compound further gave an inhibition constant Ki at hCA I of 864 nM. For the same compound, at hCA IX, the Ki was 39.2 nM, the “Selectivity ratio I/IX” value came out at 22.1 and the “Selectivity ratio II/IX” value is recorded as 1.3.
For the compound `NS(=O)(=O)c1ccccc1Nc1ccnc2ccc(Cl)cc12` [9c, 2-((6-chloroquinolin-4-yl)amino)benzenesulfonamide], the melting point is 258 to 260 °C. On hCA XII, the Ki came out at 38.4 nM, the “Selectivity ratio I/XII” value was 32.3 and the “Selectivity ratio II/XII” value was 2.3. The compound further displayed a Ki on hCA II of 86.8 nM. Also, the affinity on hCA I, expressed as Ki, was 1240 nM. Besides, on hCA IX, the affinity, expressed as Ki, was 65.6 nM; the “Selectivity ratio I/IX” value was found to be 18.9; the “Selectivity ratio II/IX” value stood at 1.3.
`NS(=O)(=O)c1ccccc1Nc1ccnc2cc(C(F)(F)F)cc(C(F)(F)F)c12` [9d, 2-((5,7-bis(trifluoromethyl)quinolin-4-yl)amino)benzenesulfonamide]: the Ki on hCA II came to 112 nM; on hCA I it was 1560 nM.
Turning to `Cc1ccc2nccc(Nc3cccc(S(N)(=O)=O)c3)c2c1` [11a, 3-((6-methylquinolin-4-yl)amino)benzenesulfonamide], the melting point lay within 272 to 274 °C. On hCA XII, affinity was put at a Ki of 41.2 nM, the “Selectivity ratio I/XII” value was 16.1 and the “Selectivity ratio II/XII” value is 6.4. The compound also showed a Ki at hCA II of 265 nM. The compound further yielded a Ki on hCA I of 663 nM. Also, on hCA IX, the Ki amounted to 70.1 nM, the “Selectivity ratio I/IX” value was determined as 9.5 and the “Selectivity ratio II/IX” value is recorded as 3.8.
For `COc1ccc2nccc(Nc3cccc(S(N)(=O)=O)c3)c2c1` [11b, 3-((6-methoxyquinolin-4-yl)amino)benzenesulfonamide], the melting point was in the range of 244 to 246 °C. For the same compound, on hCA XII, the affinity, expressed as Ki, was 73.1 nM; the “Selectivity ratio I/XII” value is 3.5; the “Selectivity ratio II/XII” value was 5.0. Moreover, at hCA II, the inhibitory constant (Ki) was 366 nM. At hCA I, this compound had an inhibition constant Ki of 258 nM. In addition, at hCA IX, the inhibitory constant (Ki) was 86.5 nM, the “Selectivity ratio I/IX” value is recorded as 3.0 and the “Selectivity ratio II/IX” value was found to be 4.2.
Take `NS(=O)(=O)c1cccc(Nc2ccnc3cc(C(F)(F)F)cc(C(F)(F)F)c23)c1` [11d, 3-((5,7-bis(trifluoromethyl)quinolin-4-yl)amino)benzenesulfonamide]: the melting point fell in the range of 172 to 174 °C. In addition, at hCA XII, the inhibition constant (Ki) is 34 nM, the “Selectivity ratio I/XII” value stood at 3.1 and the “Selectivity ratio II/XII” value worked out at 6.5. This compound returned an inhibitory constant (Ki) on hCA II of 221 nM. At hCA I, this compound gave a Ki of 105 nM. On hCA IX, affinity was put at a Ki of 52.9 nM, the “Selectivity ratio I/IX” value is 2.0 and the “Selectivity ratio II/IX” value is 4.2.
`Cc1ccc2nccc(Nc3ccc(C)c(S(N)(=O)=O)c3)c2c1` [11e, 2-methyl-5-((6-methylquinolin-4-yl)amino)benzenesulfonamide]: the melting point fell in the range of 280 to 282 °C. For the same compound, at hCA XII, the Ki was determined as 88.1 nM, the “Selectivity ratio I/XII” value is given as 39.7 and the “Selectivity ratio II/XII” value is 17.1. In addition, the inhibition constant (Ki) on hCA II was 1500 nM. On hCA I, this compound showed a Ki of 3500 nM. Moreover, on hCA IX, the affinity corresponds to a Ki of 104 nM, the “Selectivity ratio I/IX” value was 33.8 and the “Selectivity ratio II/IX” value was found to be 14.5.
Take `COc1ccc2nccc(Nc3ccc(C)c(S(N)(=O)=O)c3)c2c1` [11f, 5-((6-methoxyquinolin-4-yl)amino)-2-methylbenzenesulfonamide]: the melting point lay within 248 to 250 °C. Also, on hCA XII, affinity was put at a Ki of 152 nM, the “Selectivity ratio I/XII” value is reported as 14.8 and the “Selectivity ratio II/XII” value came to 6.6. At hCA II, this compound gave a Ki of 998 nM. At hCA I, this compound returned an inhibition constant Ki of 2260 nM. Also, on hCA IX, the affinity corresponds to a Ki of 853 nM, the “Selectivity ratio I/IX” value stood at 2.6 and the “Selectivity ratio II/IX” value is 1.2.
Consider `Cc1ccc(Nc2ccnc3ccc(Cl)cc23)cc1S(N)(=O)=O` [11g, 5-((6-chloroquinolin-4-yl)amino)-2-methylbenzenesulfonamide], for which the melting point is 282 to 285 °C. At hCA XII, the Ki amounted to 92.7 nM, the “Selectivity ratio I/XII” value is 48.8 and the “Selectivity ratio II/XII” value turned out to be 25.4. The compound also showed an inhibition constant (Ki) at hCA II of 2360 nM. At hCA I, this compound showed a Ki of 4520 nM. Moreover, on hCA IX, the affinity, expressed as Ki, was 116 nM; the “Selectivity ratio I/IX” value is recorded as 38.9; the “Selectivity ratio II/IX” value is recorded as 20.3.
Compound `Cc1ccc2nccc(Nc3ccc(S(N)(=O)=O)cc3)c2c1` [13a, 4-((6-methylquinolin-4-yl)amino)benzenesulfonamide] displayed a melting point of 270 to 272 °C. In addition, at hCA XII, the inhibitory constant (Ki) came to 9.8 nM, the “Selectivity ratio I/XII” value worked out at 8.0 and the “Selectivity ratio II/XII” value amounted to 3.7. In addition, the Ki at hCA II amounted to 36.5 nM. Also, the inhibitory constant (Ki) on hCA I was 78.4 nM. On hCA IX, the inhibition constant (Ki) came out at 25.8 nM, the “Selectivity ratio I/IX” value is recorded as 3.0 and the “Selectivity ratio II/IX” value was determined as 1.4.
In turn, `NS(=O)(=O)c1ccc(Nc2ccnc3ccc(Cl)cc23)cc1` [13c, 4-((6-chloroquinolin-4-yl)amino)benzenesulfonamide] came in with a melting point of 284 to 286 °C. Further, at hCA XII, the Ki stood at 8.7 nM, the “Selectivity ratio I/XII” value came out at 6.4 and the “Selectivity ratio II/XII” value turned out to be 0.8. This compound yielded an inhibition constant (Ki) on hCA II of 7.3 nM. The compound further showed a Ki at hCA I of 55.4 nM. On hCA IX, the inhibitory constant (Ki) is 18.6 nM, the “Selectivity ratio I/IX” value was found to be 3.0 and the “Selectivity ratio II/IX” value amounted to 0.4.
The term IC50 denotes the concentration that inhibits the measured activity by half. Turning to `COc1cccc2c1C(=O)c1c(O)c3c(c(O)c1C2=O)C[C@@](O)(C(=O)CO)C[C@@H]3O[C@H]1C[C@H](N)[C@H](O)[C@H](C)O1` [Doxorubicin, reference compound], the 50% inhibitory concentration (IC50) stood at 3040 ± 140 nM in the data set with MCF-7 and 1670 ± 80 nM in the data set on MDA-MB-231.
Take `COc1ccc2nccc(NNC(=O)c3ccc(S(N)(=O)=O)cc3)c2c1` [compound 16, 4-(2-(6-Methoxyquinolin-4-yl)hydrazine-1-carbonyl)benzenesulfonamide]: the melting point was 228 to 230 °C. For the same compound, at hCA XII, the Ki came out at 25.4 nM, the “Selectivity ratio I/XII” value turned out to be 3.2 and the “Selectivity ratio II/XII” value is 1.2. This compound also returned an inhibition constant (Ki) on hCA II of 31.1 nM. The inhibition constant (Ki) at hCA I was determined as 81.4 nM. On hCA IX, the affinity, expressed as Ki, was 21.7 nM; the “Selectivity ratio I/IX” value turned out to be 3.8; the “Selectivity ratio II/IX” value is 1.4.
